The values that follow come from patent US20230218618A1, “ADMINISTRATION OF SUMO-ACTIVATING ENZYME INHIBITOR AND ANTI-CD38 ANTIBODIES” (MILLENNIUM PHARMACEUTICALS, INC., priority 2020, published 2023).

The test system of assay [1] is NCI-H929 human multiple myeloma cell line. The assay can be described thus: Study 5: NCI-H929 xenograft human multiple myeloma subcutaneous tumor model. It is filed as in vivo, SCID mice. Particulars: for Tumor growth compared to vehicle (pairwise comparison): I-263a 7.5 mg/kg BIW 2 weeks (p > 0.05), daratumumab 2.5, 7.5 or 20 mg/kg BIW 2 weeks alone or combined with I-263a (p < 0.001); for GRI%: vs vehicle. On the procedure: (§1) Low tumor volumes can cause problems with the data analysis, so all measurements below 25 cubic mm (including 0 values) were excluded from the analysis. After this exclusion step, the tumor volume was assumed to follow an exponential growth model. More specifically, for a given animal and treatment group,
(§2) Pairwise comparisons were performed, where the mean growth rates were compared for various pairs of treatment conditions. The results were summarized using the growth rate inhibition (GRI). Suppose µT and µC are the mean tumor growth rates for the treatment and reference groups, respectively. Define
(§3) Here, µAB, µA, µB, and µControl are the mean growth rates for the combination, drug A, drug B, and control groups, respectively. As before, µv is the mean tumor growth rate for the vehicle group, which in most cases is the same as the control group. The standard error of the synergy score was calculated as the square root of the sum of squared standard errors across the four groups. The degrees of freedom were estimated using the Welch-Satterthwaite equation. A hypothesis test was performed to determine if the synergy score differed from 0. P-values were calculated by dividing the synergy score by its standard error and tested against a t-distribution (two-tailed) with the above-calculated degrees of freedom. A P value of less than 0.05 is statistically significant.
(§4) The combination results can be interpreted as follows. Statistically significant negative synergy scores indicate a synergistic combination (“Syn.”). Statistically significant positive synergy scores indicate a sub-additive combination (“Sub-add.”) when the combination performs better (i.e. has a lower growth rate) than the best performing single agent. Statistically significant positive synergy scores indicate an antagonistic combination (“Antag.”) when the combination performs worse than the best performing single agent. Scores that are not statistically significant should be considered additive (“Add.”).
NCI-H929 is a human multiple myeloma cell line. A NCI-H929 human xenograft tumor model was generated by subcutaneous inoculation with 1.0 × 10^7 NCI-H929 cells (cell suspension) in 7 weeks old female SCID mice (Vital River Laboratory Animal Technology Co., Ltd, Beijing, China) in the flank. When the mean tumor volume reached approximately 180 mm^3, the animals were randomized into one vehicle control and seven treatment groups (n=10/group). Mice were then dosed with 20% HPβCD or Compound I-263a or daratumumab over a 14-day period. Tumor growth and body weight were measured twice per week during the treatment and post-treatment periods, and mice were humanely euthanized once they had reached their humane endpoint.
A 1.5 mg/mL stock solution of I-263a was formulated weekly in 20% HPβCD and administered IV based on exact animal body weight on each day of treatment, using a dosing volume of 5 mL/kg body weight. Final dose I-263a received was 7.5 mg/kg. I-263a was administered on a BIW schedule for 2 weeks (Days 0, 3, 7, and 10). Daratumumab (anti-CD38 antibody) (Janssen Biotech, Inc., Horsham, PA) was stored at 4° C. according to manufacturer’s instructions. Final dose daratumumab received was 2.5 mg/kg, 7.5 mg/kg, and 20 mg/kg based on average body weight. Daratumumab was administered intraperitoneally (IP) using a 0.1 mL dosing volume, on a BIW schedule for 2 weeks (Days 0, 3, 7, and 10).
Tumors were measured twice weekly using Vernier calipers. Tumor volumes were calculated using standard equation: V = W^2 × L/2, where V = volume, W = width, and L = length for the tumor. When mean tumor volumes reached approximately 180 mm^3, mice were randomized into control and treatment groups. Mice were randomized into 8 groups (n=8/group) and dosed with vehicle (20% HPβCD), I-263a, daratumumab, or the combination of I-263a plus daratumumab at doses and schedules as described above. Tumor size and body weight were measured twice a week for the duration of the study. […]

Assay [2] relates to Daudi human Burkitt’s Lymphoma cell line. The assay can be described thus: Study 7: Daudi xenograft human Burkitt's lymphoma subcutaneous tumor model (daratumumab or AB79). To be noted: for GRI%: vs vehicle; for Tumor growth relative to vehicle-treated tumors (pairwise comparison): each agent 7.5 mg/kg BIW, I-263a p = 0.105, daratumumab p < 0.001, AB79 p = 0.002, both combinations p < 0.001, data up to Day 22. Format: in vivo, CB17 SCID mice. The procedure:
as §1, §2, §3, §4
Daudi is a human Burkitt’s Lymphoma cell line. A Daudi human xenograft tumor model was generated by subcutaneous inoculation with 2.0 × 10^6 Daudi cells (cell suspension) in 7 weeks old female CB17 SCID mice (Charles River Laboratories, 251 Ballardvale St., Wilmington, MA) in the flank. When the mean tumor volume reached approximately 110 mm3, the animals were randomized into one vehicle control and six treatment groups (n=8/group). Mice were then dosed with 20% HPβCD or Compound I-263a and/or daratumumab or AB79 over a 21-day period. Tumor growth and body weight were measured twice per week during the treatment and post-treatment periods, and mice were humanely euthanized once they had reached their humane endpoint.
A 0.75 mg/mL stock solution of I-263a was formulated weekly in 20% HPβCD and administered intravenously (IV) based on an average body weight using a 0.2 mL dosing volume. Final doses of I-263a received were 7.5 mg/kg. I-263a was administered on a BIW schedule for 3 weeks (Days 1, 4, 8, 11, 15, and 18). Daratumumab (anti-CD38 antibody) (Myoderm Medical Supplies, 48 E Main St., Norristown, PA 19401) was purchased at the beginning of the study and stored at 4° C. according to manufacturer’s instructions. Final dose of daratumumab received was 7.5 mg/kg based on average body weight. Daratumumab was administered intraperitoneally (IP) using a 0.1 mL dosing volume, on a BIW schedule for 3 weeks (Days, 1, 4, 8, 11, 15, and 18). AB79 was formulated on the day of dosing in 0.9% saline and administered intraperitoneally (IP) using a 0.1 mL dosing volume, on a BIW schedule for 3 weeks (Days, 1, 4, 8, 11, 15, and 18). Final dose of AB79 was 7.5 mg/kg based on average body weight.
Tumors were measured twice weekly using Vernier calipers. Tumor volumes were calculated using standard equation: V = W2 × L/2, where V = volume, W = width, and L = length for the tumor. […]

As for `Cc1sc(C(=O)c2cncnc2N[C@@H]2C[C@H](COS(N)(=O)=O)[C@@H](O)C2)cc1[C@@H]1NCCc2ccc(Cl)cc21` [Compound I-263a, [(1R,2S,4R)-4-{[5-({4-[(1R)-7-chloro-1,2,3,4-tetrahydroisoquinolin-1-yl]-5-methyl-2-thienyl}carbonyl)pyrimidin-4-yl]amino}-2-hydroxycyclopentyl]methyl sulfamate], the “Tumor growth compared to vehicle (pairwise comparison)” value in assay [1] is reported as “not significantly different from vehicle”. Further, in assay [1] (I-263a 7.5 mg/kg BIW IV), the “Tumor volume on Day 14 (± SEM)” value is recorded as 1763.8 ± 187.6 and the GRI% is listed as 6%. In assay [2] (I-263a 7.5 mg/kg BIW IV), the “Tumor Volume on Day 22 (±SEM)” value is on record as 1305 (±83.6) and the GRI% was 13%. Further, the “Tumor growth relative to vehicle-treated tumors (pairwise comparison)” value in assay [2] is recorded as “tumor growth inhibition”.

For the compound “Daratumumab: immunoglobulin G1 kappa (IgG1κ) human monoclonal antibody against CD38 antigen”, the “Tumor volume on Day 14 (± SEM)” value amounted to 999.5 ± 187.7 in assay [1] (Daratumumab 2.5 mg/kg BIW IP), 838.3 ± 142.8 in assay [1] (Daratumumab 7.5 mg/kg BIW IP) and 656.2 ± 127.2 in assay [1] (Daratumumab 20 mg/kg BIW IP). In addition, the GRI% in assay [1] (Daratumumab 2.5 mg/kg BIW IP) came to 37%; in assay [1] (Daratumumab 7.5 mg/kg BIW IP) it was 45%; in assay [1] (Daratumumab 20 mg/kg BIW IP), 54%; in assay [2] (Daratumumab 7.5 mg/kg BIW IP) it was 31%. In assay [1], the “Tumor growth compared to vehicle (pairwise comparison)” value is “significantly inhibited tumor growth curves”. For the same compound, the “Tumor Volume on Day 22 (±SEM)” value in assay [2] (Daratumumab 7.5 mg/kg BIW IP) is reported as 1004.9 (±97.1). In addition, the “Tumor growth relative to vehicle-treated tumors (pairwise comparison)” value in assay [2] is listed as “tumor growth inhibition”.
